Measurements published in ChEMBL document CHEMBL1156456, “Insights into the mechanism of partial agonism: crystal structures of the peroxisome proliferator-activated receptor gamma ligand-binding domain in the complex with two enantiomeric ligands” (J Biol Chem, 2007).

Assays:
[1] = Activation of PPARgamma L469A mutant-mediated transcriptional activity assessed as Gal4 reporter activity
[2] = Activation of PPARgamma I472A mutant-mediated transcriptional activity assessed as Gal4 reporter activity
[3] = Activation of PPARgamma Q286G mutant-mediated transcriptional activity assessed as Gal4 reporter activity
[4] = Activation of PPARgamma L465A mutant-mediated transcriptional activity assessed as Gal4 reporter activity

Question: Which results are given for CN(CCOc1ccc(CC2SC(=O)NC2=O)cc1)c1ccccn1 (centres undefined) [ROSIGLITAZONE]?
Answer: EC50 [1]: > 10 µM; EC50 [2]: > 10 µM; EC50 [3]: 0.207 µM; EC50 [4]: > 10 µM
